Measured values from patent US20210260022A1, “SYNERGY FOR INCREASING ENERGY EXPENDITURE AND INSULIN SENSITIVITY” (The Board of Supervisors of Louisiana State University and …, priority 2018, published 2021).
“Also recorded” adds a separate entry of the source.

Experiments:
human adipocytes [1] = assay: Oxygen consumption rate in human adipocytes, Seahorse XF24; format: cell-based; details: treated for 7d
Method: Referring to FIG. 3, oxygen consumption rate in human adipocytes after Naringenin treatment. Cells were treated for 7d and OCR was measured using a Seahorse XF24. Rosiglitizone and GW7647 (activators of PPARγ and PPARα) were included as positive controls.

PPARγ = target: T1, PPARγ (Homo sapiens, UniProt P37231); details: reporter gene assays; cited from earlier work
T1 sequence (P37231 1-505): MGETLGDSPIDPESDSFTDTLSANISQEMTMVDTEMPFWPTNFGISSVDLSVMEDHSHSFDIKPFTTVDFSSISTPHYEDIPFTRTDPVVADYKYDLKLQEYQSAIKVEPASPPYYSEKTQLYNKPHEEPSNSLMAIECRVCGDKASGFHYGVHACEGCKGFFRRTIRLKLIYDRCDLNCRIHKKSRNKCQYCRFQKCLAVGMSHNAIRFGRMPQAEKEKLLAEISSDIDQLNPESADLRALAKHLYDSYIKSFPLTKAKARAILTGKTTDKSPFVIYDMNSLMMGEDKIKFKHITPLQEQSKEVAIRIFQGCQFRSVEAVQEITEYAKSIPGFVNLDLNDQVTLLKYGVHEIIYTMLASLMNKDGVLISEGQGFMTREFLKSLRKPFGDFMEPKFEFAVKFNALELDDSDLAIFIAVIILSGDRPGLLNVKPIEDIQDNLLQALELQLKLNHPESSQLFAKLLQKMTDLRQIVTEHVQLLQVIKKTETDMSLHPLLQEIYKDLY

human adipocytes [2] = assay: mRNA expression (Taqman RT-PCR) in differentiated human adipocytes after 7 day treatment; format: cell-based
Method: Carotenoids tested were β-carotene (βCar), Lycopene (lyco) and lutein. […] In our preclinical lab at PBRC, human subcutaneous adipocyte cell cultures were treated with naringenin at a concentration of 10 μM for seven days. […] Differentiated human adipocytes were treated with 10 μM naringenin for 7 days. Gene expression was analyzed using Taqman RT-PCR and values are expressed as fold increase over untreated controls (n=5). […] Activated AMPK induces glucose consumption and fat oxidation in adipose tissue. Carotenoids are vitamin A precursors found in foods and their consumption can cause reduction in adiposity and insulin resistance in pediatric clinical trials (Canas et al., 2012; Canas et al., 2017). After ingestion, they are metabolized into retinoid ligands for retinoic acid receptors (RAR) and retinoic X receptors (RXR) which are localized in the cell nucleus. RXRs form heterodimers with PPARs in transcriptional complexes known to target genes for energy expenditure and fat oxidation (Bonet et al., 2015).

cytochrome P450 enzymes = details: in vivo studies in humans; cited from earlier work
[3] = Eight-week case study of naringenin 150 mg three times daily in a subject with diabetes; format: in vivo, human
Method: A subject was recruited. […] The subject met the inclusion criteria of fasting blood glucose between 126 and 200 mg/dL. They had been prescribed metformin but had discontinued the medication due to gastrointestinal intolerance. Exclusion criteria consisted of known allergy to citrus fruit. The study was approved by the Pennington Biomedical Research Center (PBRC) Institutional Review Board. The participant provided written informed consent. Procedures were in accordance with PBRC's ethical standards. We conducted an eight-week case study. The subject completed three visits to the clinic. Visits were performed in the morning after an overnight fast for at least eight hours where only water was permitted. At the baseline visit, upon arrival, weight and vital signs (blood pressure and heart rate) were measured. […] Blood was collected for a chemistry panel (glucose, insulin, creatinine, potassium, uric acid, albumin, calcium, magnesium, creatine phosphokinase, alanine aminotransferase, alkaline phosphatase, iron, total cholesterol high density lipoprotein cholesterol [HDL-C], low density lipoprotein cholesterol [LDL-C], and triglycerides) and a complete blood count (CBC). Resting metabolic rate (RMR) was measured over five hours at baseline and at the end of eight weeks using the ventilated hood to collect expirated gases. The test required the subject to lie quietly in bed after ingesting a capsule containing 150 mg naringenin. To evaluate the subject's metabolic rate, oxygen consumed and the carbon dioxide given off were measured during the last thirty minutes of each hour. Following the baseline testing, the subject was given 100 capsules each containing 150 mg naringenin with instructions to take one orally three times daily. At weeks two and six, the subject received a phone call from the study coordinator and was asked about their progress and compliance. Changes in medications and adverse events were also evaluated. They were encouraged to comply with the study protocol. At week four, the subject returned to the clinic and their weight, blood pressure, and heart rate were measured. Any remaining capsules were collected and compliance was assessed. Naringenin (100 capsules) for the next four weeks was dispensed. Week eight marked the subject's last visit and involved repeating the baseline testing. At this visit, the subject returned any remaining capsules, and compliance was assessed. Whole sweet oranges (Citrus Sinensis) were subjected to an aqueous and ethanolic extraction process, dried, milled, and provided in a powder form by Green Chem/Gencor Lifestage Solutions (Irvine, Calif.). The quantification of naringenin in the extract, and the safety and pharmacokinetics of the extract in humans are previously described.^15 The extract contained 28% naringenin. Therefore each capsule prepared by the PBRC pharmacist contained 536 mg of the extract.

PPARα = target: T2, PPARα (Homo sapiens, UniProt Q07869); details: reporter gene assays; cited from earlier work
T2 sequence (Q07869 1-468): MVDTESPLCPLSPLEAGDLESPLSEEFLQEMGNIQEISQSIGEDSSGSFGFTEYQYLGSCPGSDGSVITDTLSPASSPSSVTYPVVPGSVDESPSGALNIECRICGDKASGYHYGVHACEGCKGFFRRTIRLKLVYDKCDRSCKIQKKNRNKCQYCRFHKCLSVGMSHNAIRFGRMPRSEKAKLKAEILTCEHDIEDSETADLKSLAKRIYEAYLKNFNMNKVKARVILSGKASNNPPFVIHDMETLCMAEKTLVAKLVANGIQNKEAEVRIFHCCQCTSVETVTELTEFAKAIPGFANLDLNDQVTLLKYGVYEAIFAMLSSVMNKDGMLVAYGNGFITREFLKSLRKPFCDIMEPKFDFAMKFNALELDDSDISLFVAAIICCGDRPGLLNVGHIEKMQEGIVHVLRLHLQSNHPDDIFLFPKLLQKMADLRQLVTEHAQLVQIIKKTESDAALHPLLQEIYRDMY

ovariectomized mice = details: cited from earlier work

SMILES: O=C1C[C@@H](c2ccc(O)cc2)Oc2cc(O)cc(O)c21 [naringenin]
- oxygen consumption rate: basal and maximal energy expenditure (human adipocytes [1]): significantly increases basal and maximal energy expenditure
- oxygen consumption rate: basal and maximal energy expenditure (human adipocytes [1]; listed as Naringenin): increase in oxygen consumption
- activation of PPARγ (PPARγ): Direct activation
- expression of UCP1, GLUT4 and CPT-1 genes (human adipocytes [2]; 10 μM for seven days, human subcutaneous adipocytes): Significant increases
- Adiponectin RNA expression and adiponectin protein levels (human adipocytes [2]; naringenin at 10 micromolar): went up
- RNA and protein expression of uncoupling protein-1, adipose tissue glyceride lipase, carnitine palmitoyl transferase-1, glucose transporter-4, ChREBP alpha and beta (human adipocytes [2]; naringenin at 10 micromolar): increasing RNA and protein expression
- inhibition of cytochrome P450 enzymes (cytochrome P450 enzymes): not the main inhibitory compound in grapefruit
- loss of body weight ([3]; 150 mg three times a day, in 8 weeks): 2.3%
- reduction in HOMA-IR ([3]; absolute, eight weeks vs baseline): 0.6
- maximal respiratory quotient increase above baseline ([3]; at one hour): 1.2%
- RMR peak above baseline ([3]; at one hour, after eight weeks): 3.5%
- triglycerides after eight weeks ([3]; baseline 53 mg/dL): 70 mg/day
- HOMA-IR at the end of the study ([3]; baseline 3.4): 2.8
- Low density lipoprotein cholesterol decrease ([3]; calculated with the Friedewald equation): 10.3 mg/dL
- adverse events ([3]; eight weeks): No adverse events were reported
- blood safety markers ([3]; eight weeks): within their reference ranges; also recorded: no clinically significant changes
- change in respiratory quotient ([3]; eight weeks): no change; also recorded: did not change
- HOMA-IR reduction ([3]; eight weeks vs baseline): 17.6%
- change in glucose ([3]; eight weeks vs baseline): not clinically significant
- triglycerides increase ([3]; eight weeks vs baseline 53 mg/dL): 32%
- loss of body weight at the 6 month plateau ([3]; extrapolated from 8 weeks): 4.6%
- Body weight decrease ([3]; over eight weeks, vs baseline): 2.3 kg
- activation of PPARα (PPARα): Direct activation
- weight gain, glucose metabolism and muscle function (ovariectomized mice; ovariectomized mice fed a high fat diet): reversed the weight gain and improved glucose metabolism and muscle function
- fasting glucose, insulin (and cholesterol) levels (ovariectomized mice; ovariectomized mice): improved fasting glucose, insulin and cholesterol levels
- weight gain caused by ovariectomy (ovariectomized mice; ovariectomized mice): prevented the weight gain
